One assay concerns the target T1, RET (h) (Homo sapiens, UniProt P07949).
T1 construct: purchased Upstate
Briefly: Upstate kinase panel: RET. Particulars: compound 20 μM, 10 μM ATP, read-out: % inhibition at 20 μMol. Format: biochemical. Here is the method: (§1) These kinases are produced by Upstate and screened according to the respective protocols indicated by the supplier (http://www.upstate.com/features/kp_protocols.asp). Examples 1, 12, 166 and 238 were tested at a concentration of 20 μM, 10 μM, 1 μM and 1 μM respectively in the presence of 10 μM of ATP for examples 1 and 12 and at the concentrations of ATP shown in parentheses for examples 166 and 238. The results shown in Table VII correspond to percentage inhibition of the kinase tested in the presence of the compound, relative to a control effected without the compound.

The target in the next assay is T2, PIM-1 (Homo sapiens, UniProt P11309).
T2 construct: purchased Upstate 14-573
The assay can be described thus: Inhibition of kinase PIM-1 (Kinase-Glo). It is filed as biochemical. Particulars: PIM-1 0.625 μg/ml, 10 μM ATP, forty minutes at 30° C. The method in brief:
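PIM-1 (0.625 μg/ml) in MOPS/NaOH pH 7 with Mg acetate was run with 70 μM S6 kinase/Rsk2 peptide and 10 μM ATP, with compound at 10 nM–30 μM final.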
In general terms: Kinase-Glo reads ATP consumption through a luciferase reaction.

A further assay concerns the target T3, Met (h) (Homo sapiens, UniProt P08581).
T3 construct: purchased Upstate
The assay can be described thus: Upstate kinase panel: Met. It is filed as biochemical. The settings on record: compound 20 μM, 10 μM ATP, read-out: % inhibition at 20 μMol. Here is the method: as §1

The subject of another assay is SW756. Briefly: WST test, inhibition of proliferation of SW756. Format: cell-based. Particulars: Homo sapiens, 96 h; line SW756, tissue of origin Cervix; four days of incubation, WST-1. The method, then: (§2) The inhibition of the proliferation of cell lines by certain compounds of the invention was tested. […] In the example, the lines used were derived from cancers of the uterus, central nervous system, colon, stomach, head and neck, lung, breast, pancreas, and kidney, as well as from lymphoma, myeloma, pleura, or from melanoma.
(§3) The WST test for measuring cell proliferation and viability (Roche Applied Science) is based on cleavage of a tetrazolium salt by the mitochondrial dehydrogenases in viable cells.
(§4) After four days of incubation of the compounds with the cell line, 14 μl of WST-1 reagent is added to each well and the plates are incubated for four hours at 37° in humid atmosphere at 5% CO2. The level of formazan formed is then determined by spectrophotometry at 450 nm whereas a reference is measured at 650 nm. A control with untreated cells is represented by six wells per plate and the group of treated cells is produced in triplicate for each of the concentrations measured.
(§5) The compounds are tested at five concentrations between 10 nM and 100 μM and two cytotoxic agents are used as controls: adriamycin and 5-fluorouracil.
(In general: Tetrazolium dyes change colour on reduction, which living cells bring about.)

Another assay concerns CAPAN2. Briefly: WST test, inhibition of proliferation of CAPAN2. Particulars: Homo sapiens, Capan-2, 96 h; line CAPAN2, tissue of origin Pancreas; four days of incubation, WST-1. It is filed as cell-based. The method, then: as §2, §3, §4, §5
Another assay concerns SKNAS. Briefly: WST test, inhibition of proliferation of SKNAS. It is filed as cell-based. Particulars: Homo sapiens, SK-N-AS, 96 h; line SKNAS, tissue of origin CMS; four days of incubation, WST-1. Here is the method: as §2, §3, §4, §5
A further assay relates to U251. Briefly: WST test, inhibition of proliferation of U251. It is filed as cell-based. The settings on record: Homo sapiens, U-251, 96 h; line U251, tissue of origin CMS; four days of incubation, WST-1. The method, then:
as §2, §3, §4, §5

The next assay has as its system HT144. Briefly: WST test, inhibition of proliferation of HT144. Format: cell-based. The settings on record: Homo sapiens, HT-144, 96 h; line HT144, tissue of origin Melanoma; four days of incubation, WST-1. Here is the method:
as §2, §3, §4, §5

The next assay deals with MLCK (h). Briefly: Upstate kinase panel: MLCK. Format: biochemical, human. The settings on record: compound 1 μM, ATP (10). The method, then:
as §1

The next assay concerns SKUT1B. The assay can be described thus: WST test, inhibition of proliferation of SKUT1B. Particulars: Homo sapiens, 96 h; line SKUT1B, tissue of origin Uterus; four days of incubation, WST-1. It is filed as cell-based. The method, then: as §2, §3, §4, §5
The subject of a further assay is A427. The assay can be described thus: WST test, inhibition of proliferation of A427. It is filed as cell-based. The settings on record: Homo sapiens, A-427, 96 h; line A427, tissue of origin Lung (NSCLC); four days of incubation, WST-1. The method, then: as §2, §3, §4, §5
For the next assay, the system named is 536L. Briefly: WST test, inhibition of proliferation of 536L. Format: cell-based. Particulars: 96 h; line 536L, tissue of origin Head/neck; four days of incubation, WST-1. The method, then:
as §2, §3, §4, §5

The subject of another assay is A172. Briefly: WST test, inhibition of proliferation of A172. It is filed as cell-based. Particulars: Homo sapiens, A 172, 96 h; line A172, tissue of origin CMS; four days of incubation, WST-1. Here is the method: as §2, §3, §4, §5
In the next assay the test system is RAJI. The assay can be described thus: WST test, inhibition of proliferation of RAJI. Format: cell-based. The settings on record: Homo sapiens, 96 h; line RAJI, tissue of origin Lymphoma; four days of incubation, WST-1. Here is the method: as §2, §3, §4, §5
The target in another assay is T4, FGFR1 (h) (Homo sapiens, UniProt P11362).
T4 construct: purchased Upstate
The assay can be described thus: Upstate kinase panel: FGFR1. It is filed as biochemical. The settings on record: compound 1 μM, ATP (200), read-out: % inhibition at 1 μMol. The method, then:
as §1

T1 sequence (P07949 29-1114): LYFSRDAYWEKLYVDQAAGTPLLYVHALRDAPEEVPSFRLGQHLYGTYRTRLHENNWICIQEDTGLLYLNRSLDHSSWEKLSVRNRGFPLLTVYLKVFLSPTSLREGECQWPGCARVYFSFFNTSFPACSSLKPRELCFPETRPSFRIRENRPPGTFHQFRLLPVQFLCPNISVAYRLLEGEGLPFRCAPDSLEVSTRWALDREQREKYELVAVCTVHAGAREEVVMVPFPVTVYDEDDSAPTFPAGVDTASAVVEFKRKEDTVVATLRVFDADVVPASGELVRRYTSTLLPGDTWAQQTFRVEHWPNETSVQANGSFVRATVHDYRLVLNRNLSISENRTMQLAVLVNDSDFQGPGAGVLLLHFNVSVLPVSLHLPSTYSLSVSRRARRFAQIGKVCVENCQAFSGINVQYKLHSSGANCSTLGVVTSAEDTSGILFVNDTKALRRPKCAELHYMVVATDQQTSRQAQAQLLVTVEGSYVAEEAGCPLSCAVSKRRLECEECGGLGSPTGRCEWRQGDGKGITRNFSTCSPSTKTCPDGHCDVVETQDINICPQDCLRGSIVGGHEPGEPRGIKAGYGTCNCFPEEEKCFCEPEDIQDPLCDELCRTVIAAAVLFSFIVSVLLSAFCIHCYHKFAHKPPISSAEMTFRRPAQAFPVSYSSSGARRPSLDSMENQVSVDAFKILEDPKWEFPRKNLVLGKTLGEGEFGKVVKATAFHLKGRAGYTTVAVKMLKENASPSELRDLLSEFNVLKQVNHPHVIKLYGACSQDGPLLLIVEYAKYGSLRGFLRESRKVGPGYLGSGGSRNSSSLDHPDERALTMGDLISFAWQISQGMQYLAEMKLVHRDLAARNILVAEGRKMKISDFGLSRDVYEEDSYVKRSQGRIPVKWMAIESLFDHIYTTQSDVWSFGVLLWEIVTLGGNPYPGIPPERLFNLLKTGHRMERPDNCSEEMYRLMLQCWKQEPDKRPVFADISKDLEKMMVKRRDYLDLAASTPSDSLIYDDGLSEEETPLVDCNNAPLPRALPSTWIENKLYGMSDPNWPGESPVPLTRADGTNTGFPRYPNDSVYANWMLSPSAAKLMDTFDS
T3 sequence (P08581 25-1390): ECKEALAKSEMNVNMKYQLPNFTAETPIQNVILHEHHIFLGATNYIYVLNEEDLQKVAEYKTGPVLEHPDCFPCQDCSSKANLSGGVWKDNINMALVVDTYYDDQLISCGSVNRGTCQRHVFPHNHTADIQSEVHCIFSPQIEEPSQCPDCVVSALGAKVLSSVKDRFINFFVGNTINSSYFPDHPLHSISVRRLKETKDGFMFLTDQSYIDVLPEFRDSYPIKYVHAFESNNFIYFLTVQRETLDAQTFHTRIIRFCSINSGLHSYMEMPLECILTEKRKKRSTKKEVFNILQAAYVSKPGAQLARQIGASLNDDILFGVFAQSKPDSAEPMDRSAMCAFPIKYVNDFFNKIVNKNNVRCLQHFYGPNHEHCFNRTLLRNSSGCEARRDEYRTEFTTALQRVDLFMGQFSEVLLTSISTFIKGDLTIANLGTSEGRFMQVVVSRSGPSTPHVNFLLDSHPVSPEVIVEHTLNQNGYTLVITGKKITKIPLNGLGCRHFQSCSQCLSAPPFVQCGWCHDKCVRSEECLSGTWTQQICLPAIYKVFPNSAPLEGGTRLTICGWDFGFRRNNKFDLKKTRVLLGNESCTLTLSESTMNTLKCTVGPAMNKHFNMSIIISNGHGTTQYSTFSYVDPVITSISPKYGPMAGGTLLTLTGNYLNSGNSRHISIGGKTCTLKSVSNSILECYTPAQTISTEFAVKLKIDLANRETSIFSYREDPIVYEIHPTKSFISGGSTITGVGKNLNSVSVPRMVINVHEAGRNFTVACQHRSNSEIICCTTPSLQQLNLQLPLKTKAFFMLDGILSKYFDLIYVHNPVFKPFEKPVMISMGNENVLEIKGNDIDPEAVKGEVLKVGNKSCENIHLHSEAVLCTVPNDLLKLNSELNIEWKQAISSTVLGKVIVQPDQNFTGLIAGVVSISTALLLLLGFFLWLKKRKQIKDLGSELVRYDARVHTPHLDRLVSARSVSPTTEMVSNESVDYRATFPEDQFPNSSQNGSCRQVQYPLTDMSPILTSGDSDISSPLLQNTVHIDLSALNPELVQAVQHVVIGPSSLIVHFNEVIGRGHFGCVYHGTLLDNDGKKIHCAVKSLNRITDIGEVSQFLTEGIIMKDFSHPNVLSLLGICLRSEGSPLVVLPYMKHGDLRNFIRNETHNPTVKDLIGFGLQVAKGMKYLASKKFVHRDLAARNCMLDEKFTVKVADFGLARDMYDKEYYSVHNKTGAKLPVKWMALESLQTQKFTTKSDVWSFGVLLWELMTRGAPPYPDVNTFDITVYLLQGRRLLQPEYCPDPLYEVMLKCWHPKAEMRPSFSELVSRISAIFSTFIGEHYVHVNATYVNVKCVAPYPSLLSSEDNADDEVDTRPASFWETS
T2 sequence (P11309 whole entry): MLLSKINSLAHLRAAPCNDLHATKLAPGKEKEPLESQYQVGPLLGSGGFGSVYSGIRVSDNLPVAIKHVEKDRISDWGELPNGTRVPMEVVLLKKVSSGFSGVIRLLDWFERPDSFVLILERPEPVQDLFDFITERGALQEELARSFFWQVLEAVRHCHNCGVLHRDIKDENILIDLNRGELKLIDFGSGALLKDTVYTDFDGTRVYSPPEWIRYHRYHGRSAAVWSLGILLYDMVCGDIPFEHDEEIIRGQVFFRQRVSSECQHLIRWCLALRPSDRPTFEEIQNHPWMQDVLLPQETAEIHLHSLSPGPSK
T4 sequence (P11362 22-822): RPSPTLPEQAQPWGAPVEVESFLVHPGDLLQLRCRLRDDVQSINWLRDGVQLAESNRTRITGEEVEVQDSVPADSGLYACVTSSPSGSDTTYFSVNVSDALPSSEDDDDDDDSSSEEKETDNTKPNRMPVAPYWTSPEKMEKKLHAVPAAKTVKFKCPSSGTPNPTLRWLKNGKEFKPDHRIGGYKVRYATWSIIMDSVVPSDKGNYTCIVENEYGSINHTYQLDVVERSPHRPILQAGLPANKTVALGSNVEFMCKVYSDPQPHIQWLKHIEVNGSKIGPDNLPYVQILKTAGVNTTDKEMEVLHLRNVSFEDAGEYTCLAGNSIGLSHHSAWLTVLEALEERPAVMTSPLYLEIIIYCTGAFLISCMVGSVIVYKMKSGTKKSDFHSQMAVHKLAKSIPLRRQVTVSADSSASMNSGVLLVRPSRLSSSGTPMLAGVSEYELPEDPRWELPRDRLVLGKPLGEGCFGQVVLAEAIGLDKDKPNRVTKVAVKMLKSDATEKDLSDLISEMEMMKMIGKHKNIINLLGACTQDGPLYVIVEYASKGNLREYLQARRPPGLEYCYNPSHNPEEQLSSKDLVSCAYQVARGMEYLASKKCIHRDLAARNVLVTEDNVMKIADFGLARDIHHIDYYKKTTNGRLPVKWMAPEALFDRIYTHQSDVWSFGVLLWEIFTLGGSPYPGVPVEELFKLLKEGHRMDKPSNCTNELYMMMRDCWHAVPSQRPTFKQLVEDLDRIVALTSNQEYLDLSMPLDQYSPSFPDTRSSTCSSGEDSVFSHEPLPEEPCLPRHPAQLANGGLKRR

Broadly, the inhibition is the share of the control response that was lost under treatment. What is called IC50 is the concentration needed to halve the response being measured. Read a high IC50 as lower potency. For `CCOC(=O)c1c[nH]c2c(=O)[nH]c3ccccc3c12` [Compound 1, 4-Oxo-4,5-dihydro-3H-pyrrolo[2,3-c]quinoline-1-ethyl carboxylate], the inhibition at 20 µM on RET (h) worked out at 99%; at Met (h) it was 52%. For the same molecule, the half-inhibitory concentration (IC50) at PIM-1 lay within 10 to 100 µM.

By % inhibition is commonly meant the change of the read-out against control, counted positive when it falls. Read a high % inhibition as a strong effect. Consider `CCOC(=O)c1c[nH]c2c(=O)[nH]c3ccc(-c4cccc(S(C)(=O)=O)c4)cc3c12` [Compound 238, 8-(3-Methanesulfonyl-phenyl)-4-oxo-4,5-dihydro-3H-pyrrolo[2,3-c]quinoline-1-ethyl carboxylate], for which the IC50 in the assay on SW756 was determined as 35 µM; with CAPAN2, 47 µM; in the assay on SKNAS it was 12 µM; in the assay with U251 it was 33 µM; with HT144 it was 31 µM; in the assay on SKUT1B, 33 µM. Also, the half-inhibitory concentration (IC50) in the assay on A427 stood at 36 µM; with 536L, 36 µM; with A172, 13 µM; in the assay on RAJI, 34 µM. Further, in the assay with MLCK (h), the “% inhibition at 1 μMol” value worked out at 21%. The inhibition at 1 µM at FGFR1 (h) worked out at 51%.

For the origin of these results see patent publication US8426437B2, “Pyrroloquinoline derivatives and their use as protein kinases inhibitors” (Pierre Fabre Medicament, priority 2005, dated 2013).
